Measurements as given in publication PMC4232510, “Identification of Functionally Important Residues of the Rat P2X4 Receptor by Alanine Scanning Mutagenesis of the Dorsal Fin and Left Flipper Domains” (PLoS ONE, 2014).
Residue numbers refer to the chain shown, from its start.

Legend:
rP2X4R E285A mutant = biological target: T1, rP2X4R E285A mutant (Rattus norvegicus, UniProt P51577, E285A); assay: whole-cell patch clamp, HEK293T cells expressing mutant; type: cell-based
T1 construct: expressed in transfected cells; host or cells: HEK293T
T1 sequence (P51577 1-388 E285A): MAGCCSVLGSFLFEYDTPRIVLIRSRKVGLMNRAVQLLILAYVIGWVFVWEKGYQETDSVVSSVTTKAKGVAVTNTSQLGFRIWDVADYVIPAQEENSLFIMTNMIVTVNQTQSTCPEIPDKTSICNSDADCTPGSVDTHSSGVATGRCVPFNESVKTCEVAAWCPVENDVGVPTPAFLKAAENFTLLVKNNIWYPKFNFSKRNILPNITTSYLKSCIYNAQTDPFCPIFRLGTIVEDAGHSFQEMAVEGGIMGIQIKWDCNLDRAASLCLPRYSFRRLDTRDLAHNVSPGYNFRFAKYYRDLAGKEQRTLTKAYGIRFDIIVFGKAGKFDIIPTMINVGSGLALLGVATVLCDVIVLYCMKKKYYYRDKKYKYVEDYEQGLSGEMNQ

rP2X4R P207A mutant = biological target: T2, rP2X4R P207A mutant (Rattus norvegicus, UniProt P51577, P207A); assay: as above; type: cell-based
T2 construct: expressed in transfected cells; host or cells: HEK293T
T2 sequence (P51577 1-388 P207A): T1 sequence (P51577 1-388 E285A) with P207A, A285E

[1] = 100 µM ATP 60 s, biexponential fit
[2] = contribution of τdes2, 100 µM ATP 60 s
[3] = naïve receptors, 2–5 s application
[4] = 3 µM IVM 4-6 min vs IVM-untreated

| SMILES | τdes1 (rP2X4R E285A mutant; [1]) | τdes2 (rP2X4R E285A mutant; [1]) | Imax (rP2X4R E285A mutant; 100–1000 µM ATP) | Imax+IVM (rP2X4R E285A mutant; ATP after 3 µM IVM 4-6 min) | A2 /(A1+A2) (rP2X4R E285A mutant; [2]) | τoff +IVM (rP2X4R E285A mutant; decay after removal of 1 or 3 µM ATP, 3 µM IVM) | EC50 (rP2X4R E285A mutant; [3]) | τdes (rP2X4R E285A mutant; weighted, 100 µM ATP 60 s) | τdes1 (rP2X4R P207A mutant; [1]) | τdes2 (rP2X4R P207A mutant; [1]) | A2 /(A1+A2) (rP2X4R P207A mutant; [2]) | EC50 (rP2X4R P207A mutant; [3]) | τdes (rP2X4R P207A mutant; weighted, 100 µM ATP 60 s) | Fold incr. Imax (rP2X4R E285A mutant; [4]) | Fold incr. Imax (rP2X4R P207A mutant; [4]) |
| --- | --- | --- | --- | --- | --- | --- | --- | --- | --- | --- | --- | --- | --- | --- | --- |
| Nc1ncnc2c1ncn2[C@@H]1O[C@H](COP(=O)(O)OP(=O)(O)OP(=O)(O)O)[C@@H](O)[C@H]1O [ATP] | 0.9 ± 0.2 s | 8.5 ± 3.6 s | 2.0 ± 0.5 nA | 2.6 ± 0.6 nA | 65 ± 2% | 24 ± 4.3 s | 7.1 ± 3 µM | 6.0 ± 2.6 s | 0.7 ± 0.1 s | 5.6 ± 0.2 s | 71 ± 2% | 2.1 ± 1.1 µM | 4.1 ± 0.2 s | – | – |
| CC[C@H](C)[C@H]1O[C@]2(CC[C@@H]1C)C[C@@H]1C[C@@H](C/C=C(\C)[C@@H](O[C@H]3C[C@H](OC)[C@@H](O[C@H]4C[C@H](OC)[C@@H](O)[C@H](C)O4)[C@H](C)O3)[C@@H](C)/C=C/C=C3\CO[C@@H]4[C@H](O)C(C)=C[C@@H](C(=O)O1)[C@]34O)O2 [IVM, ivermectin] | – | – | – | – | – | – | – | – | – | – | – | – | – | 1.3 ± 0.4 fold | 1.5 ± 0.3 fold |
